Reference: US4622337A, “2,2-dimethyl-3-(2-halovinyl)cyclopropane carboxlic acid ester pesticides” (priority 1972, dated 1986)

What was measured:
[1] = test system: houseflies (Musca domestica); assay: Relative toxicity to houseflies, topical drop on thorax; assay type: in vivo; details: 5-benzyl-3-furylmethyl (1R)-trans-chrysanthemate = 1000; inverse ratio of LD50; topical, female flies
Protocol: (§1) The toxicity of these new esters was tested by the procedure described in detail in our above mentioned application and the following results were obtained:
(§2) The insecticidal acitivity of the esters of the invention was assessed against houseflies and mustard beetles using the following techniques:
(§3) Female flies were treated on the thorax with a one microliter drop of insecticide dissolved in acetone. Two replicates of 15 flies were used at each dose rate and 6 dose rates were used per compound under test. After treatment, the flies were maintained at a temperature of 20° C.±1° and kill was assessed 24 and 48 hours after treatment. LD50 values were calculated in micrograms of insecticide per fly and relative toxicities were calculated from the inverse ratios of the LD50 values. (see Sawicki et al, Bulletin of the World Health Organization, 35,893, (1966) and Sawicki et al, Entomologia and Exp. Appl. 10, 253, (1967)).
(§4) Relative toxicities were calculated by comparison with 5-benzyl-3-furylmethyl(1R)-trans-chrysanthemate which is one of the most toxic chrysanthemate esters known to houseflies and mustard beetles, its toxicity being about 24 times that of allethrin to houseflies and 65 times that of allethrin to mustard beetles.

[2] = test system: mustard beetles (Phaedon cochleariae Fab); assay: Relative toxicity to mustard beetles, topical micro drop; assay type: in vivo; details: 5-benzyl-3-furylmethyl (1R)-trans-chrysanthemate = 1000; inverse ratio of LD50; topical, 48 hours
Protocol: as §1, §2
Acetone solutions of the test compound were applied ventrally to adult mustard beetles using a micro drop applicator. The treated insects were maintained for 48 hours after which time kill is assessed. Two replicates of 40 to 50 mustard beetles were used at each dose level and 3 to 4 dose levels were used for each compound. Again, LD50 values were calculated and relative toxicities were calculated for the inverse ratios of LD50 (see Elliott et al, J. Sci. Food Agric. 20, 561, (1969)).
as §4

[3] = test system: female flies (houseflies); assay: Synergisability with sesamex, 2 μg per fly pretreatment; assay type: in vivo, Musca domestica; details: for LD 50 active compound + synergist: pretreated with 2 μg. per fly sesamex; for Approx. Synergistic factor: sesamex, 2 μg. per fly; for LD 50 active compound only: untreated flies
Protocol: as §3, with “values.” for “values. (see Sawicki et al, Bulletin of the World Health Organization, 35,893, (1966) and Sawicki et al, Entomologia and Exp. Appl. 10, 253, (1967)).”

Row | SMILES | Relative Toxicity, Houseflies [1] | Relative Toxicity, Mustard Beetles [2] | LD 50 active compound + synergist [3] [μg. per female fly] | Approx. Synergistic factor [3] | LD 50 active compound only [3] [μg. per female fly]
1 | CC1(C)[C@H](C(=O)OCc2cccc(Oc3ccccc3)c2)[C@@H]1C=C(Cl)Cl (relative stereo) [Compound P21G] | 680 | 780 | 0.00037 | ~22 | 0.0083
2 | CC1(C)[C@H](C=C(Cl)Cl)[C@H]1C(=O)OCc1cccc(Oc2ccccc2)c1 (racemic) [Compound P21F, 3-Phenoxybenzyl(1RS)-trans-2,2-dimethyl-3-(2,2-dichlorovinyl)cyclopropane carboxylate] | 400 | 790 | 0.00033 | ~39 | 0.013
3 | CC1(C)[C@H](C(=O)OC(C#N)c2cccc(Oc3ccccc3)c2)[C@@H]1C=C(Cl)Cl (stereo partly drawn) [Compound P29J, (αRS)-cyano-3-phenoxybenzyl(1R)-cis-2,2-dimethyl-3-(2,2-dichlorovinyl)-cyclopropane carboxylate] | 11000 | 4200 |  |  | 
4 | CC1(C)[C@H](C(=O)OCc2cccc(C(=O)c3ccccc3)c2)[C@@H]1C=C(F)F [Compound P39D, 3-benzoylbenzyl(1R)-cis-2,2-dimethyl-3-(2,2-difluorovinyl)-cyclopropane carboxylate] | 20 | 500 |  |  | 
5 | CC1(C)[C@H](C(=O)OC(C#N)c2cccc(Oc3ccccc3)c2)[C@@H]1C=C(F)F (stereo partly shown) [Compound P31F] | 1200 | 2200 |  |  | 
6 | CC1(C)[C@H](C=C(Cl)Cl)[C@H]1C(=O)OC(C#N)c1cccc(Oc2ccccc2)c1 (relative stereo) [Compound P29H, (αRS)-cyano-3-phenoxybenzyl(1RS)-trans-2,2-dimethyl-3-(2,2-dichlorovinyl)-cyclopropane carboxylate] | 1800 | 750 |  |  | 
7 | CCCOC(=O)C=C[C@@H]1[C@@H](C(=O)OCc2coc(Cc3ccccc3)c2)C1(C)C [Compound P19C] | 24 | 40 |  |  | 
8 | CC1(C)[C@H](C(=O)OCc2coc(Cc3ccccc3)c2)[C@@H]1C=C(Cl)Cl (relative stereo) [Compound P21D] | 1200 | 1700 | 0.00046 | ~12 | 0.0058
9 | CCCC=C(C)C1C(C(=O)OCc2coc(Cc3ccccc3)c2)C1(C)C (stereo not shown) [Compound I] | < 7 | < 10 |  |  | 
10 | CC1(C)[C@H](C(=O)OCc2coc(Cc3ccccc3)c2)[C@@H]1C=C(F)F [Compound P31D] | 2300 | 1300 |  |  | 
11 | CC/C=C\[C@H]1[C@@H](C(=O)OCc2coc(Cc3ccccc3)c2)C1(C)C [Compound A cis] |  |  | 0.0012 | ~6 | 0.0074
12 | CC1(C)[C@H](C=C(F)F)[C@H]1C(=O)OCc1cccc(Oc2ccccc2)c1 [Compound P31B] | 620 | 270 |  |  | 
13 | C=CCC1=C(C)C(OC(=O)[C@@H]2[C@@H](C=C(C)C)C2(C)C)CC1=O (stereo partly shown) [Bioallethrin, reference compound] | 60 | 20 |  |  | 
14 | CC1(C)C(C=C(Br)Br)C1C(=O)OC(C#N)c1cccc(Oc2ccccc2)c1 [P29B (non-crystalline isomer), (αR)-cyano-3-phenoxybenzyl(1R)cis-2,2-dimethyl-3-(2,2-dibromovinyl)cyclopropane carboxylate] | 3500 | 4000 |  |  | 
15 | CC(C)=CC1C(C(=O)OCc2coc(Cc3ccccc3)c2)C1(C)C (racemic) [5-benzyl-3-furyl methyl (1RS)--cis-trans-chrysanthemate, reference compound] |  |  |  | ~13 | 
16 | CC/C=C\[C@@H]1[C@@H](C(=O)OCc2cccc(Oc3ccccc3)c2)C1(C)C [T] | 240 | 300 |  |  | 
17 | CCOC(=O)C(Br)=C[C@@H]1[C@@H](C(=O)OCc2coc(Cc3ccccc3)c2)C1(C)C [Compound P24D] | 450 | 290 |  |  | 
18 | CC1(C)[C@H](C(=O)OC(C#N)c2cccc(Oc3ccccc3)c2)[C@@H]1C=C(Br)Br (stereo partly drawn) [Compound P29B, (αRS)-cyano-3-phenoxybenzyl(1R)cis-2,2-dimethyl-3-(2,2-dibromovinyl)cyclopropane carboxylate] | 10000 | 11000 |  |  | 
19 | C=CC=CCC1=C(C)C(OC(=O)C2C(C=C(Cl)Cl)C2(C)C)CC1=O (single isomer, unassigned) [Compound P21M] | 19 | 370 |  |  | 
20 | CC/C=C\[C@@H]1[C@@H](C(=O)OCc2cccc(Cc3ccccc3)c2)C1(C)C [Compound S] | 120 | 170 |  |  | 
21 | CC1(C)[C@H](C=C(Cl)Cl)[C@@H]1C(=O)OC(C#N)c1cccc(Oc2ccccc2)c1 (stereo partly drawn) [Compound P29K, (αRS)-cyano-3-phenxoybenzyl(1S)-cis-2,2-dimethyl-3-(2,2-dichlorovinyl)-cyclopropane carboxylate] | 140 | 130 |  |  | 
22 | C=C/C=C\CC1=C(C)[C@@H](OC(=O)[C@@H]2[C@@H](C=C(C)C)C2(C)C)CC1=O [Pyrethrin I, reference compound] | 12 | 1600 |  |  | 
23 | CC1(C)[C@H](C=C(Cl)Cl)[C@H]1C(=O)OCc1cccc(Cc2ccccc2)c1 (relative stereo) [Compound P21I] | 170 | 420 |  |  | 
24 | CC1(C)[C@H](C=C(Cl)Cl)[C@H]1C(=O)OCc1coc(Cc2ccccc2)c1 [Compound P21A] | 2500 | 2700 |  |  | 
25 | CC1(C)[C@H](C(=O)OCC#CCOc2ccccc2)[C@@H]1C=C(Br)Br [Compound ME6, 4-Phenoxybut-2-ynyl(1R)cis-3-(2,2-dibromovinyl)-2,2-dimethylcyclopropane carboxylate] | 390 | 50 |  |  | 
26 | CC1(C)[C@H](C=C(F)F)[C@H]1C(=O)OCc1coc(Cc2ccccc2)c1 [Compound P31A] | 3900 | 1900 |  |  | 
27 | CC1(C)[C@H](C=C(F)F)[C@H]1C(=O)OC(C#N)c1cccc(Oc2ccccc2)c1 (stereo partly shown) [Compound P31C] | 840 | 730 |  |  | 
28 | CCCCC=C[C@@H]1[C@@H](C(=O)OCc2coc(Cc3ccccc3)c2)C1(C)C [Compound C] | 270 | 420 |  |  | 
29 | CCCOC(=O)C(=C[C@@H]1[C@@H](C(=O)OCc2coc(Cc3ccccc3)c2)C1(C)C)CC [Compound P19H] | 20 | 50 |  |  | 
